The record followed here is ChEMBL document CHEMBL1147772, “The identification of potent and selective imidazole-based inhibitors of B-Raf kinase” (Bioorg Med Chem Lett, 2006).

Experiment [1] has as its target T1, Serine/threonine-protein kinase B-raf (Homo sapiens, UniProt P15056).
Description: Inhibition bRaf kinase activity
The target in experiment [2] is T1, Serine/threonine-protein kinase B-raf. This is another data set of the same source.
Description: Binding affinity at bRaf kinase in fluorescent ligand displacement assay
Experiment [3] has as its target Ribosomal protein S6 kinase alpha-5 (Homo sapiens) (UniProt O75582). Kind of experiment: Inhibition of MSK1 activity at 10 uM.
Experiment [4] concerns the target RAC-alpha serine/threonine-protein kinase (Homo sapiens) (UniProt P31749). The experiment is described as follows: Inhibition of PKBalpha activity at 10 uM.
Experiment [5] concerns the target cAMP-dependent protein kinase (PKA) (Homo sapiens) (UniProt P22694+P17612+P22612). The experiment is described as follows: Inhibition of PKA activity at 10 uM. The experiment is classed as protein assay.
Experiment [6] has as its target Phosphorylase kinase (Homo sapiens) (UniProt P15735+P46020+P46019+Q93100+Q16816). The experiment is described as follows: Inhibition of phosphorylase kinase activity at 10 uM. It counts as protein-complex assay.
Experiment [7] deals with Casein kinase II (Homo sapiens) (UniProt P67870+P68400+P19784). Kind of experiment: Inhibition of CK2 activity at 10 uM. The experiment is classed as protein-complex assay.
Experiment [8] addresses Mitogen-activated protein kinase 8 (Homo sapiens) (UniProt P45983). The experiment is described as follows: Inhibition of JNK1 activity at 10 uM.
Experiment [9] concerns the target Serine/threonine-protein kinase Chk1 (Homo sapiens) (UniProt O14757). Kind of experiment: Inhibition of CHK1 activity at 10 uM.
The target of experiment [10] is Serine/threonine-protein kinase Sgk1 (Homo sapiens) (UniProt O00141). Kind of experiment: Inhibition of SGK activity at 10 uM.
In experiment [11] the target is Mitogen-activated protein kinase 1 (Homo sapiens) (UniProt P28482). Kind of experiment: Inhibition of MAPK2 activity at 10 uM.
The target of experiment [12] is Ribosomal protein S6 kinase (P70S6K) (Homo sapiens) (UniProt Q9UBS0+P23443). Kind of experiment: Inhibition of p70S6K activity at 10 uM. It counts as protein-complex assay.
Experiment [13] addresses AMP-activated protein kinase, AMPK (Homo sapiens) (UniProt P54646+O43741+P54619+Q9UGJ0+Q9Y478+Q13131+Q9UGI9). The experiment is described as follows: Inhibition of AMPK activity at 10 uM. The experiment is classed as protein-complex assay.
Experiment [14] has as its target Mitogen-activated protein kinase 13 (Homo sapiens) (UniProt O15264). The experiment is described as follows: Inhibition of p38delta MAPK activity at 10 uM.
Experiment [15] deals with Glycogen synthase kinase-3 beta (Homo sapiens) (UniProt P49841). Kind of experiment: Inhibition of GSK3-beta activity at 10 uM.
Experiment [16] has as its target MAP kinase-activated protein kinase 2 (Homo sapiens) (UniProt P49137). Kind of experiment: Inhibition of MAPKAPK2 activity at 10 uM.
In experiment [17] the target is Dual specificity mitogen-activated protein kinase kinase 1 (Homo sapiens) (UniProt Q02750). Kind of experiment: Inhibition of MEK1 activity at 10 uM.
The target in experiment [18] is Mitogen-activated protein kinase 11 (Homo sapiens) (UniProt Q15759). Kind of experiment: Inhibition of p38-beta MAPK activity at 10 uM.
Experiment [19] concerns the target Rho-associated protein kinase 2 (Homo sapiens) (UniProt O75116). The experiment is described as follows: Inhibition of ROCK2 activity at 10 uM.
Experiment [20] concerns the target Protein kinase C alpha type (Homo sapiens) (UniProt P17252). The experiment is described as follows: Inhibition of PKCalpha activity at 10 uM.
Experiment [21] addresses Tyrosine-protein kinase Lck (Homo sapiens) (UniProt P06239). Kind of experiment: Inhibition of Lck activity at 10 uM.
In experiment [22] the target is Mitogen-activated protein kinase 12 (Homo sapiens) (UniProt P53778). Kind of experiment: Inhibition of p38-gamma MAPK activity at 10 uM.
For experiment [23], the target named is MAP kinase-activated protein kinase 5 (Homo sapiens) (UniProt Q8IW41). The experiment is described as follows: Inhibition of PRAK activity at 10 uM.

T1 sequence (P15056 whole entry): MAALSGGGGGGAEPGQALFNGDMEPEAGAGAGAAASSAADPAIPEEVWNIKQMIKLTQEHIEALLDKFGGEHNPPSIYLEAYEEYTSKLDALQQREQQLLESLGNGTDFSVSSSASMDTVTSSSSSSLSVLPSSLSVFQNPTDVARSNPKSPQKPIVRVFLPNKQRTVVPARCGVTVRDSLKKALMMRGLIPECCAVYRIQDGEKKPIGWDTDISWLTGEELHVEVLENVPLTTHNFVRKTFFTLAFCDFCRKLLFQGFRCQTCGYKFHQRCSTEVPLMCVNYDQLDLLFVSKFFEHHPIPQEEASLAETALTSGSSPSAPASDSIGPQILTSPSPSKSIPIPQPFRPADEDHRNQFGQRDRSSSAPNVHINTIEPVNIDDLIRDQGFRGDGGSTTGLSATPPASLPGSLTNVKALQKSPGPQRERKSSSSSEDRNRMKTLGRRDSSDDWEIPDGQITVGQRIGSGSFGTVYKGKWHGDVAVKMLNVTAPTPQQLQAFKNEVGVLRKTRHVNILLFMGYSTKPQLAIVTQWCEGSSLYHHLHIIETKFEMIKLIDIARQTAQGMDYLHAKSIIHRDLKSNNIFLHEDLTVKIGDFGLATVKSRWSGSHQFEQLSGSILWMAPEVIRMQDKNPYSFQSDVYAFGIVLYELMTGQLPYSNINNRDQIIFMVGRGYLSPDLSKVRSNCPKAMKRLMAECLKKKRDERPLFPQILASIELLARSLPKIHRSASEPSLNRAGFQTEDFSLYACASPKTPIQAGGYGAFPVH
Sequence of Tyrosine-protein kinase Lck (Homo sapiens) (P06239 2-509 limits assumed): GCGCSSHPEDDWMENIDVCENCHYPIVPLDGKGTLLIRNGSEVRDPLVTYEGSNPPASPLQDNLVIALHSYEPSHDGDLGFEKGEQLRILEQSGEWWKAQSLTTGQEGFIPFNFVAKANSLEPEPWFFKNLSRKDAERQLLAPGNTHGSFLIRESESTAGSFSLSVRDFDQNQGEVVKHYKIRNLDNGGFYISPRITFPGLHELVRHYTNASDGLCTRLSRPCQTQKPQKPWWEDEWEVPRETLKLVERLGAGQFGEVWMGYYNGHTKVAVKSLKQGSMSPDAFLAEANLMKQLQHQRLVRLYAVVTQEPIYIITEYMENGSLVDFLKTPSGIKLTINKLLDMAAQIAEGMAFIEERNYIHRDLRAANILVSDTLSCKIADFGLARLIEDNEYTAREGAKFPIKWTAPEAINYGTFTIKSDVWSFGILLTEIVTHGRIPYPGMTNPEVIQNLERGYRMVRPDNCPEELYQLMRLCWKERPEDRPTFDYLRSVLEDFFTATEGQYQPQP
Sequence of Mitogen-activated protein kinase 1 (Homo sapiens) (P28482 whole entry): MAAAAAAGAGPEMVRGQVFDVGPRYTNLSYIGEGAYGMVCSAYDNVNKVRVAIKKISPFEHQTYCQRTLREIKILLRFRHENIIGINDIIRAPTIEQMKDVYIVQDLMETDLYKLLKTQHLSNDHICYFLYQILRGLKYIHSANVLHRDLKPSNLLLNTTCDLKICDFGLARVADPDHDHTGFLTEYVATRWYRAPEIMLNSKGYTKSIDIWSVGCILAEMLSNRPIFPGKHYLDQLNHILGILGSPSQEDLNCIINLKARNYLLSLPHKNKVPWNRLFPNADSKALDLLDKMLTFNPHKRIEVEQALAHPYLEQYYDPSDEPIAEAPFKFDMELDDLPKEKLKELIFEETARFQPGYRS
Sequence of Dual specificity mitogen-activated protein kinase kinase 1 (Homo sapiens) (Q02750 whole entry): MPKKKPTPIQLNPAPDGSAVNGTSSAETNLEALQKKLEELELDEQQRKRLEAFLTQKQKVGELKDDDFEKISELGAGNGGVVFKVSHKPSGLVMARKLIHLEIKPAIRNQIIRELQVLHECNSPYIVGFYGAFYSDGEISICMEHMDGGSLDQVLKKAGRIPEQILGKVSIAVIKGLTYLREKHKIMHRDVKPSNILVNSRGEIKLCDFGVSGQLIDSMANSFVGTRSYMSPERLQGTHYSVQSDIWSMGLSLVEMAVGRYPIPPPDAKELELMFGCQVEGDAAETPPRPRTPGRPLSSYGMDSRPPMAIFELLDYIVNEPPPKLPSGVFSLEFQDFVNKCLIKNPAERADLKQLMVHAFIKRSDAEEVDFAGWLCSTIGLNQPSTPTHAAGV
Sequence of Mitogen-activated protein kinase 12 (Homo sapiens) (P53778 whole entry): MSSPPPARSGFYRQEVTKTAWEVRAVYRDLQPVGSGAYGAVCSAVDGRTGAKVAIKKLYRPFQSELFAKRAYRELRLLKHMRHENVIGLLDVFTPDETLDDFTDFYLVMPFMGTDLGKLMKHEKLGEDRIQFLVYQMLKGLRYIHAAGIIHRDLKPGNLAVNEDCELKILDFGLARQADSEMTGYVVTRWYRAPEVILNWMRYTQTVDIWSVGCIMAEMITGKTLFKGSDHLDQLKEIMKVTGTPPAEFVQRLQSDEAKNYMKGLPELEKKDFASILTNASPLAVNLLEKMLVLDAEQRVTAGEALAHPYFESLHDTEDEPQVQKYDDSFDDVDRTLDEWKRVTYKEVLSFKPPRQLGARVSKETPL
Sequence of Serine/threonine-protein kinase Sgk1 (Homo sapiens) (O00141 whole entry): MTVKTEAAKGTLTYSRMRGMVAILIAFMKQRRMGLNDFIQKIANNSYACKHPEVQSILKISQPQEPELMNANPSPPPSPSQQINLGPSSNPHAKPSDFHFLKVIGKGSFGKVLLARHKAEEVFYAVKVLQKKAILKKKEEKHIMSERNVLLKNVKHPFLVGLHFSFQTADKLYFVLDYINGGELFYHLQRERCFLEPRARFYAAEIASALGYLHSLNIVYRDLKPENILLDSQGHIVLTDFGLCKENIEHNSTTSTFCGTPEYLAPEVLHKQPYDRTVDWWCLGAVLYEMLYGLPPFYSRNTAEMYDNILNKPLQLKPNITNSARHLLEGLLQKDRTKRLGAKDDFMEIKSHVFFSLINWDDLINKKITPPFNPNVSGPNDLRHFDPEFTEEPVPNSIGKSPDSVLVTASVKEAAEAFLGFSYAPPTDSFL
Sequence of MAP kinase-activated protein kinase 2 (Homo sapiens) (P49137 whole entry, looked up): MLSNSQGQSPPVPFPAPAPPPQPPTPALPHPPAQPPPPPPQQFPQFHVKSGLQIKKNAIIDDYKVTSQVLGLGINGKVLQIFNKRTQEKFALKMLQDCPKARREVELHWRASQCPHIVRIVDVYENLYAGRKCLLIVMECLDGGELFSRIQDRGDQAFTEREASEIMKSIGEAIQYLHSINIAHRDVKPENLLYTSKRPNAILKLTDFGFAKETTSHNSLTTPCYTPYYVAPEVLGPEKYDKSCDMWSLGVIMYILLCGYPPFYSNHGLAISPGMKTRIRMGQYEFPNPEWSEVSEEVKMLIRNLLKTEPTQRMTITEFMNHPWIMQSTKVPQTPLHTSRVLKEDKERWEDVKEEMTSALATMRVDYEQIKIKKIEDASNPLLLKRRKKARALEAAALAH
Sequence of Mitogen-activated protein kinase 8 (Homo sapiens) (P45983 whole entry): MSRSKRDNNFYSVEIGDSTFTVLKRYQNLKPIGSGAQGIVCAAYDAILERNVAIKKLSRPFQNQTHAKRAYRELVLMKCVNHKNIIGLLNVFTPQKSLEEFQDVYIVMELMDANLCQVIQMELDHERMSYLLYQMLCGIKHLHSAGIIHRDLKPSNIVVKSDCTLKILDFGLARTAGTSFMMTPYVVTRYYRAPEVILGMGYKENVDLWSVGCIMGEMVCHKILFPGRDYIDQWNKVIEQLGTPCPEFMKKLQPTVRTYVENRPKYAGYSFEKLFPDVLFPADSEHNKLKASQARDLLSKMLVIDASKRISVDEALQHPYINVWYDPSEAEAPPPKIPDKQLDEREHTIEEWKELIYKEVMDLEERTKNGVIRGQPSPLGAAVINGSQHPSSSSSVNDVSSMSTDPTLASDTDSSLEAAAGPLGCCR
Sequence of Glycogen synthase kinase-3 beta (Homo sapiens) (P49841 whole entry, looked up): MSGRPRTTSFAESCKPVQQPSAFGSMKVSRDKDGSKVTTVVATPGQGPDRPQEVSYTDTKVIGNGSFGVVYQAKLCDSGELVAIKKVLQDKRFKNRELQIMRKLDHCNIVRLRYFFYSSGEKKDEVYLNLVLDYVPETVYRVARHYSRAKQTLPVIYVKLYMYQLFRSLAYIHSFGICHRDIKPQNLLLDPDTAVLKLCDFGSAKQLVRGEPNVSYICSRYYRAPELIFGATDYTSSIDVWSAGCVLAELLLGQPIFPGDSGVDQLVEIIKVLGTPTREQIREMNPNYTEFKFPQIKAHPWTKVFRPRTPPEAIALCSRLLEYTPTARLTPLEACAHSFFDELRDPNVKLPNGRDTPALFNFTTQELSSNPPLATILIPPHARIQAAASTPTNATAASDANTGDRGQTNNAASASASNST

On to `CC(C)(C)c1nc(-c2ccncc2)c(-c2ccc(Cl)c(O)c2)[nH]1`, for which, in experiment [1], the 50% inhibitory concentration (IC50) (commonly the concentration that gives 50% inhibition) came out at 12 nM. In experiment [2], the equilibrium dissociation constant (Kd) (usually the constant that tells how readily two partners part at equilibrium) worked out at 2 nM.
Regarding `C/C(=N\O)c1ccc(-c2[nH]c(-c3ccccc3)nc2-c2ccncc2)cc1`, the affinity in experiment [2], expressed as Kd, was 11 nM.
In the case of `CN(C)CCOc1ccc(-c2nc(-c3ccncc3)c(-c3ccc4c(c3)CC/C4=N\O)[nH]2)cc1`, the inhibition (in general, the change of the read-out against control, counted positive when it falls) was 38% in experiment [3]; 8% in [4]; -2% in [5]; 3% in [6]; 8% in experiment [7]; 19% in [8]. For the same compound, the inhibition turned out to be 9% in experiment [9]; 17% in [10]; 11% in experiment [11]; 13% in [12]; 14% in experiment [13]; 10% in experiment [14]. Besides, the inhibition worked out at 25% in experiment [15]; 9% in experiment [16]; 14% in experiment [17]; 9% in [18]; 26% in experiment [19]; 10% in experiment [20]. For the same compound, the inhibition worked out at 39% in experiment [21], 10% in experiment [22] and 18% in experiment [23].
`O/N=C/c1ccc(-c2[nH]c(-c3ccccc3)nc2-c2ccncc2)cc1O` displayed a Kd in [2] of 27 nM.
Still for that read-out and setting: then `Oc1cccc(-c2nc(-c3ccccc3)[nH]c2-c2ccncc2)c1`, with 8 nM; and `Oc1cc(-c2[nH]c(-c3ccccc3)nc2-c2cccnc2)ccc1Cl`, with > 200 nM.
For `Oc1ccc(-c2nc(-c3ccccc3)[nH]c2-c2ccncc2)cc1`, in experiment [1], the IC50 was 339 nM. Further, in experiment [2], the Kd stood at 316 nM.
`OCc1ccc(-c2[nH]c(-c3ccccc3)nc2-c2ccncc2)cc1Cl` yielded an equilibrium dissociation constant (Kd) in experiment [2] of 132 nM.
As for `Oc1cc(-c2[nH]c(-c3cccnc3)nc2-c2ccncc2)ccc1Cl`, half-maximal inhibition in experiment [1] (IC50) required 6 nM.
For the compound `CC(C)(CNC(=O)Nc1ccc(Cl)cc1)c1nc(-c2ccc(Cl)c(O)c2)c(-c2ccncc2)[nH]1`, the midpoint of inhibition in experiment [1], the IC50, lay at 13 nM. Further, in experiment [2], binding was characterised by a dissociation constant (Kd) of 21 nM.
Consider `Oc1cc(-c2[nH]c(-c3ccco3)nc2-c2ccncc2)ccc1Cl`, for which the half-inhibitory concentration (IC50) in experiment [1] stood at 13 nM. For the same compound, the Kd in [2] is 4.2 nM.
Compound `Oc1cc(-c2[nH]c(-c3ccccc3)nc2-c2ccnnc2)ccc1Cl` yielded a Kd in experiment [2] of 87 nM. That is a double-digit nanomolar value.
Turning to `CC(C)(C)c1nc(-c2ccncc2)c(-c2ccc(F)cc2)[nH]1`, in [1], the IC50 is 900 nM.
Turning to `O/N=C/c1ccc(-c2[nH]c(-c3ccccc3)nc2-c2ccncc2)cc1`, binding in [2] was put at a Kd of 5 nM.
In turn, `OCc1cccc(-c2[nH]c(-c3ccccc3)nc2-c2ccncc2)c1` had an IC50 in [1] of 1590 nM. Also, the dissociation constant (Kd) in experiment [2] is > 196 nM.
In turn, `OCc1ccc(-c2[nH]c(-c3ccccc3)nc2-c2ccncc2)cc1` yielded a dissociation constant (Kd) in experiment [2] of 71 nM.
The same measure, in the same setting: the same measure for `O/N=C/c1ccc(-c2[nH]c(-c3ccccc3)nc2-c2ccncc2)cc1Cl`: 6 nM; for `Oc1cc(-c2[nH]c(-c3ccccc3)nc2-c2ccccc2)ccc1Cl`: > 200 nM.
For `CN(C)CCCNC(=O)c1nc(-c2ccncc2)c(-c2ccc(Cl)c(O)c2)[nH]1`, the IC50 in [1] stood at 40 nM. In [2], this compound came in with a Kd of 24 nM.
Compound `O/N=C1/CCCc2cc(-c3[nH]c(-c4ccccc4)nc3-c3ccncc3)ccc21` yielded a Kd in [2] of 17 nM.
Consider `CC(C)(CN)c1nc(-c2ccc(Cl)c(O)c2)c(-c2ccncc2)[nH]1`, for which half-maximal inhibition in [1] (IC50) required 6 nM. This compound also showed a Kd in [2] of 4.8 nM.
With `N=C(NO)c1ccc(-c2[nH]c(-c3ccccc3)nc2-c2ccncc2)cc1`, in experiment [2], binding was put at a Kd of 53 nM.
As for `COc1cccc(-c2nc(-c3ccccc3)[nH]c2-c2ccncc2)c1`, the Kd in experiment [2] is > 196 nM.
Take `Oc1cc(-c2[nH]c(-c3ccccc3)nc2-c2ccncn2)ccc1Cl`: in [2], the dissociation constant (Kd) came out at 14 nM.
On the same count and under the same terms, the same measure for `OC1CCc2cc(-c3[nH]c(-c4ccccc4)nc3-c3ccncc3)ccc21` (stereo not given): > 200 nM; for `OCc1ccc(-c2[nH]c(-c3ccccc3)nc2-c2ccncc2)cc1O`: 22 nM.
As to `CC(C)(CNS(C)(=O)=O)c1nc(-c2ccc(Cl)c(O)c2)c(-c2ccncc2)[nH]1`, inhibition in experiment [1] was half-maximal at 14 nM (IC50). Also, the equilibrium dissociation constant (Kd) in experiment [2] came out at 10 nM.
`Nc1nccc(-c2[nH]c(-c3ccccc3)nc2-c2ccc(Cl)c(O)c2)n1`: binding in experiment [2] was characterised by a dissociation constant (Kd) of 5.7 nM.
The compound `Oc1cc(-c2[nH]cnc2-c2ccncc2)ccc1Cl` came in with an IC50 in experiment [1] of 33 nM. The compound further displayed a Kd in [2] of 39 nM.
As to `Oc1cc(-c2nc(-c3ccccc3)[nH]c2-c2ccncc2)ccc1Cl`, the IC50 in experiment [1] was found to be 10 nM. Besides, the inhibition was 7% in experiment [3]; 44% in experiment [4]; 12% in experiment [5]; 17% in experiment [6]; -3% in [7]; 0% in experiment [8]. For the same compound, the inhibition in experiment [9] is 1%; in [10], 2%; in [11] it was -3%; in experiment [12], 26%; in experiment [13], 12%; in [15], 83%. Also, the inhibition was -1% in [16]; 5% in [17]; 81% in experiment [18]; 3% in experiment [19]; 2% in experiment [20]; 88% in [21]. The inhibition was 5% in experiment [22] and 19% in experiment [23]. In addition, the Kd in experiment [2] came out at 2.4 nM.
